# In US12544463B2, “Deuterium substituted positron emission tomography (PET) imaging agents and their pharmacological application” (Five Eleven Pharma Inc., priority 2017, dated 2026):
# Experiments:
# [1] = biological target: T1, serotonin transporters (SERT) (Rattus norvegicus, UniProt P31652); assay: In vitro binding assay, LLC-SERT membrane homogenates, [^125I]IDAM; conditions: for Ki: 0.2 nM [^125I]IDAM, LLC-SERT membranes, read-out: Ki (SERT binding affinity) (converted)
# T1 construct: expressed in transfected cells; host or cells: LLC-PK1 (LLC-SERT)
# T1 sequence (P31652 whole entry): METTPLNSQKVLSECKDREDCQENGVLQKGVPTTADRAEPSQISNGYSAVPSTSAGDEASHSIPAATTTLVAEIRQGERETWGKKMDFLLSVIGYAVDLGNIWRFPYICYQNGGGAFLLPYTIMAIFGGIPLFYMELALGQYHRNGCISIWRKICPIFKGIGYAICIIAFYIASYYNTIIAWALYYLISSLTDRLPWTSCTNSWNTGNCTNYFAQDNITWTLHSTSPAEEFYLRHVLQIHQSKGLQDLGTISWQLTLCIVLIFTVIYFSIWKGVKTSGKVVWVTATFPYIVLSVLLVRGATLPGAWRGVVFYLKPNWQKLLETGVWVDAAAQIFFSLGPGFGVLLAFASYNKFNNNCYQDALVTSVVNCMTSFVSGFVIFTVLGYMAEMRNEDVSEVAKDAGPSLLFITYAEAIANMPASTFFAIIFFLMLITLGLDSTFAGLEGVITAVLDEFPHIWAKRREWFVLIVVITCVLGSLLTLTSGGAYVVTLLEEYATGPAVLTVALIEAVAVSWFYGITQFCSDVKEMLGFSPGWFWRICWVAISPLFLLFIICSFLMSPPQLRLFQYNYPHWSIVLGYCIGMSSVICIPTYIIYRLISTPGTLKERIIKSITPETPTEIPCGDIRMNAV
# Method: The membrane homogenates of serotonin transporters (LLC-SERT, which were expressed in a common parental cell line LLC-PK1) were prepared and used for the binding assays. Competitive binding assays were performed in a final volume of 0.25 mL. […] Nonspecific binding was defined with 10 μM citalopram. Incubation was carried out for 60 min at room temperature and the bound ligand was collected on glass fiber filters presoaked with 1% polyethylenimine (SIGMA, St. Louis, MO) and counted in a gamma counter (Wizard^2, Perkin Elmer).
# [2] = Biodistribution in rats of ^18F-III-3 (^18F-FPBM-D12); type: in vivo, rat; conditions: for Biodistribution Blood / Biodistribution Bone / Biodistribution Brain / Biodistribution Heart / Biodistribution Kidney / Biodistribution Liver / Biodistribution Lung / Biodistribution Muscle / Biodistribution Pancreas / Biodistribution Skin / Biodistribution Spleen: normal rats, i.v.
# Method: (§1) Three rats per group were used for each biodistribution study. While under isoflurane anesthesia, 0.2 mL of a saline solution containing 20 μCi of radioactive tracer was injected into the femoral vein. The rats were sacrificed at the time indicated by cardiac excision while under isoflurane anesthesia. Organs of interest were removed and weighed, and the radioactivity was counted. The percent dose per organ was calculated by comparing the tissue counts to counts of 1% of the initial dose (100 times diluted aliquots of the injected material) measured at the same time. Regional brain distribution in rats was measured after an iv injection of the radioactive tracer. Samples from different brain regions [cortex, striatum, hippocampus, cerebellum and hypothalamus] were dissected, weighed and counted. The percentage dose/g of each sample was calculated by comparing sample counts with the counts of the diluted initial dose described above. The ratio was calculated by dividing the percentage dose/g of each region by that of the cerebellum. The cerebellum was used as the reference region for calculating the ratio of target to non-target binding, because only a trace amount of SERT is present in the cerebellum.
# SERT = biological target: T2, SERT (Rattus norvegicus, UniProt P31652); assay: Region to cerebellum ratio in rats, ^18F-III-3; type: in vivo; conditions: normal rats, i.v.
# T2 construct: host or cells: live rats, dissected brain regions
# T2 sequence (P31652 whole entry): as above
# Method: as §1
structure (smiles),measurement,setting,value
CN(C)Cc1cc(O)ccc1Sc1ccc(Cl)cc1N [III-4-17],Ki,[1],0.03 nM
CN(C)Cc1cc(O)ccc1Sc1ccc(F)cc1N [III-4-19],Ki,[1],0.22 nM
[2H]C([2H])([2H])NCc1cc(OCCCF)ccc1Sc1ccccc1N [III-6-8],Ki,[1],3.05 ± 0.81 nM
[2H]C([2H])(F)C([2H])([2H])C([2H])([2H])Oc1ccc(Sc2ccc(Cl)cc2N)c(CN(C)C)c1 [III-4-25],Ki,[1],0.009 nM
[2H]C([2H])(F)C([2H])([2H])C([2H])([2H])Oc1ccc(Sc2ccc(I)cc2N)c(CN(C)C)c1 [III-4-28],Ki,[1],0.008 nM
"[2H]C([2H])(F)C([2H])([2H])C([2H])([2H])Oc1ccc(Sc2ccccc2N)c(CN(C)C)c1 (single isomer, unassigned) [III-4-2]",Ki,[1],0.14 ± 0.06 nM
"[2H]C([2H])([2H])N(Cc1cc(OC([2H])([2H])C([2H])([2H])C([2H])([2H])F)ccc1Sc1ccccc1N)C([2H])([2H])[2H] (single isomer, unassigned) [III-3 (FPBM- D12)]",Ki,[1],0.086 ± 0.029 nM
[2H]C([2H])([2H])N(Cc1cc(OC([2H])([2H])C([2H])([2H])C([2H])([2H])[18F])ccc1Sc1ccccc1N)C([2H])([2H])[2H] [^18F-III-3 (^18F-FPBM-D12)],Biodistribution Blood,[2]; 2 min,0.25 ± 0.04 % Dose/g
same,Biodistribution Bone,[2]; 2 min,0.35 ± 0.06 % Dose/g
same,Biodistribution Brain,[2]; 2 min,1.09 ± 0.06 % Dose/g
same,Biodistribution Heart,[2]; 2 min,1.19 ± 0.18 % Dose/g
same,Biodistribution Kidney,[2]; 2 min,3.02 ± 0.16 % Dose/g
same,Biodistribution Liver,[2]; 2 min,0.74 ± 0.16 % Dose/g
same,Biodistribution Lung,[2]; 2 min,9.56 ± 2.29 % Dose/g
same,Biodistribution Muscle,[2]; 2 min,0.14 ± 0.02 % Dose/g
same,Biodistribution Pancreas,[2]; 2 min,1.13 ± 0.02 % Dose/g
same,Biodistribution Skin,[2]; 2 min,0.22 ± 0.04 % Dose/g
same,Biodistribution Spleen,[2]; 2 min,1.48 ± 0.31 % Dose/g
same,Biodistribution Blood,[2]; 30 min,0.16 ± 0.03 % Dose/g
same,Biodistribution Bone,[2]; 30 min,0.19 ± 0.01 % Dose/g
same,Biodistribution Brain,[2]; 30 min,0.81 ± 0.04 % Dose/g
same,Biodistribution Heart,[2]; 30 min,0.18 ± 0.02 % Dose/g
same,Biodistribution Kidney,[2]; 30 min,1.79 ± 0.38 % Dose/g
same,Biodistribution Liver,[2]; 30 min,0.30 ± 0.05 % Dose/g
same,Biodistribution Lung,[2]; 30 min,1.86 ± 0.42 % Dose/g
same,Biodistribution Muscle,[2]; 30 min,0.09 ± 0.02 % Dose/g
same,Biodistribution Pancreas,[2]; 30 min,0.27 ± 0.06 % Dose/g
same,Biodistribution Skin,[2]; 30 min,0.19 ± 0.03 % Dose/g
same,Biodistribution Spleen,[2]; 30 min,0.88 ± 0.05 % Dose/g
same,Biodistribution Blood,[2]; 60 min,0.10 ± 0.02 % Dose/g
same,Biodistribution Bone,[2]; 60 min,0.16 ± 0.02 % Dose/g
same,Biodistribution Brain,[2]; 60 min,0.54 ± 0.05 % Dose/g
same,Biodistribution Heart,[2]; 60 min,0.09 ± 0.01 % Dose/g
same,Biodistribution Kidney,[2]; 60 min,1.29 ± 0.29 % Dose/g
same,Biodistribution Liver,[2]; 60 min,0.22 ± 0.02 % Dose/g
same,Biodistribution Lung,[2]; 60 min,0.85 ± 0.11 % Dose/g
same,Biodistribution Muscle,[2]; 60 min,0.07 ± 0.01 % Dose/g
same,Biodistribution Pancreas,[2]; 60 min,0.19 ± 0.02 % Dose/g
same,Biodistribution Skin,[2]; 60 min,0.16 ± 0.01 % Dose/g
same,Biodistribution Spleen,[2]; 60 min,0.46 ± 0.10 % Dose/g
same,Biodistribution Blood,[2]; 120 min,0.06 ± 0.00 % Dose/g
same,Biodistribution Bone,[2]; 120 min,0.13 ± 0.01 % Dose/g
same,Biodistribution Brain,[2]; 120 min,0.31 ± 0.03 % Dose/g
same,Biodistribution Heart,[2]; 120 min,0.05 ± 0.01 % Dose/g
same,Biodistribution Kidney,[2]; 120 min,0.83 ± 0.39 % Dose/g
same,Biodistribution Liver,[2]; 120 min,0.16 ± 0.01 % Dose/g
same,Biodistribution Lung,[2]; 120 min,0.45 ± 0.10 % Dose/g
same,Biodistribution Muscle,[2]; 120 min,0.03 ± 0.01 % Dose/g
same,Biodistribution Pancreas,[2]; 120 min,0.13 ± 0.07 % Dose/g
same,Biodistribution Skin,[2]; 120 min,0.10 ± 0.02 % Dose/g
same,Biodistribution Spleen,[2]; 120 min,0.21 ± 0.04 % Dose/g
same,blood-brain-barrier penetration,"[2]; rats, after i.v. injection",penetrated the blood-brain-barrier
same,Region to Cerebellum Ratio: Cerebellum,SERT; 2 min,1.00 ± 0.00
same,Region to Cerebellum Ratio: Cortex,SERT; 2 min,1.44 ± 0.27
same,Region to Cerebellum Ratio: Hippocampus,SERT; 2 min,0.97 ± 0.13
same,Region to Cerebellum Ratio: Hypothalamus,SERT; 2 min,1.17 ± 0.21
same,Region to Cerebellum Ratio: Remainder,SERT; 2 min,1.21 ± 0.13
same,Region to Cerebellum Ratio: Striatum,SERT; 2 min,1.15 ± 0.18
same,Region to Cerebellum Ratio: Cerebellum,SERT; 30 min,1.00 ± 0.00
same,Region to Cerebellum Ratio: Cortex,SERT; 30 min,1.81 ± 0.30
same,Region to Cerebellum Ratio: Hippocampus,SERT; 30 min,2.04 ± 0.27
same,Region to Cerebellum Ratio: Hypothalamus,SERT; 30 min,2.99 ± 0.46
same,Region to Cerebellum Ratio: Remainder,SERT; 30 min,2.42 ± 0.13
same,Region to Cerebellum Ratio: Striatum,SERT; 30 min,2.43 ± 0.38
same,Region to Cerebellum Ratio: Cerebellum,SERT; 60 min,1.00 ± 0.00
same,Region to Cerebellum Ratio: Cortex,SERT; 60 min,2.68 ± 0.35
same,Region to Cerebellum Ratio: Hippocampus,SERT; 60 min,3.45 ± 0.42
same,Region to Cerebellum Ratio: Hypothalamus,SERT; 60 min,5.32 ± 0.45
same,Region to Cerebellum Ratio: Remainder,SERT; 60 min,3.77 ± 0.43
same,Region to Cerebellum Ratio: Striatum,SERT; 60 min,3.96 ± 0.62
same,Region to Cerebellum Ratio: Cerebellum,SERT; 120 min,1.00 ± 0.00
same,Region to Cerebellum Ratio: Cortex,SERT; 120 min,2.67 ± 0.50
same,Region to Cerebellum Ratio: Hippocampus,SERT; 120 min,3.85 ± 0.28
same,Region to Cerebellum Ratio: Hypothalamus,SERT; 120 min,7.55 ± 0.82
same,Region to Cerebellum Ratio: Remainder,SERT; 120 min,4.74 ± 0.71
same,Region to Cerebellum Ratio: Striatum,SERT; 120 min,4.69 ± 1.26
"CN(C)Cc1ccccc1Sc1ccc(I)cc1CO [[^125I]IDAM, reference compound]",Kd,[1]; value used in Cheng-Prusoff equation,0.2 nM
CN(C)Cc1cc(O)ccc1Sc1ccccc1N [III-1-1],Ki,[1],1.21 ± 0.15 nM
